Source: PubChem BioAssay (NCI)
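Each compound was tested at five concentrations against cells in 96-well plates for 48 hours. GI50 marks 50% less growth. TGI: total growth inhibition.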

Key:
Assay in all cases: growth of human tumour cells (NCI), 48 h
SK-MEL-2 melanoma = system: SK-MEL-2 melanoma
SF-539 CNS = system: SF-539 CNS
UO-31 renal = system: UO-31 renal
NCI-H522 lung = system: NCI-H522 lung
SK-MEL-28 melanoma = system: SK-MEL-28 melanoma
SF-268 CNS = system: SF-268 CNS
SK-OV-3 ovarian = system: SK-OV-3 ovarian
NCI-H460 lung = system: NCI-H460 lung
HS 578T breast = system: HS 578T breast
DU-145 prostate = system: DU-145 prostate

Row | Structure (SMILES) | TGI (SK-MEL-2 melanoma) [µM] | TGI (SF-539 CNS) [µM] | TGI (UO-31 renal) [µM] | TGI (NCI-H522 lung) [µM] | TGI (SK-MEL-28 melanoma) [µM] | TGI (SF-268 CNS) [µM] | TGI (SK-OV-3 ovarian) [µM] | TGI (NCI-H460 lung) [µM] | GI50 (SK-MEL-2 melanoma) [µM] | GI50 (HS 578T breast) [µM] | TGI (HS 578T breast) [µM] | GI50 (DU-145 prostate) [µM] | TGI (DU-145 prostate) [µM] | GI50 (UO-31 renal) [µM] | GI50 (NCI-H522 lung) [µM] | GI50 (SK-MEL-28 melanoma) [µM] | GI50 (SF-268 CNS) [µM] | GI50 (SK-OV-3 ovarian) [µM] | GI50 (NCI-H460 lung) [µM] | GI50 (SF-539 CNS) [µM]
1 | CC1OC(n2cc(C(F)(F)F)c(=O)[nH]c2=O)C=CC1=O (configuration not stated) | 34.6 | 35.2 | 33 | 32.5 | 38.2 | > 100 | 44.9 | 48.6 | – | – | – | – | – | – | – | – | – | – | – | –
2 | c1ccc(C2=NOC3C4CCC(C4)C23)cc1 (configuration not stated) | > 100 | > 100 | > 100 | > 100 | > 100 | > 100 | > 100 | > 100 | – | – | – | – | – | – | – | – | – | – | – | –
3 | O=C(NC1CC1)c1c(O)[nH]c(=S)[nH]c1=O | > 100 | > 100 | > 100 | > 100 | > 100 | > 100 | > 100 | > 100 | – | – | – | – | – | – | – | – | – | – | – | –
4 | Cn1[nH]cc2ccc3nc4ccccc4c(=O)c3c21 | > 100 | – | 52.3 | 64.9 | > 88.5 | > 100 | > 100 | > 89.5 | – | – | – | – | – | – | – | – | – | – | – | –
5 | COc1ccc(CN2C(=O)[C@@H]3Cc4c(OC)c(C)c(OC)c(OC)c4[C@H](/C2=C\c2cc(OC)c(OC)c(C)c2OC)N3C(=O)OC(C)C)cc1 | > 100 | > 100 | > 100 | > 100 | > 100 | > 100 | > 100 | > 100 | – | – | – | – | – | – | – | – | – | – | – | –
6 | Cc1ccc2c(c1)-c1c3c(nn1C)-c1ccccc1SC3O2 (configuration not stated) | > 100 | > 100 | 88.7 | > 100 | > 100 | > 100 | > 100 | > 100 | – | – | – | – | – | – | – | – | – | – | – | –
7 | COC(=O)c1c(O)ccc(O)c1C(C(C)=O)C(C)=O | > 100 | > 100 | > 100 | > 100 | > 100 | > 100 | > 100 | > 100 | – | – | – | – | – | – | – | – | – | – | – | –
8 | O=C(/C=C/c1ccc(Cl)c(Cl)c1)c1ccccc1Cl | – | 12.2 | 27.8 | 24.1 | 22.5 | 13.9 | 57.8 | 27.2 | – | – | – | – | – | – | – | – | – | – | – | –
9 | C[P+]1(Cc2ccccc2)CCCC1 | > 100 | > 100 | > 100 | > 100 | > 100 | – | > 100 | > 100 | – | – | – | – | – | – | – | – | – | – | – | –
10 | Cc1cccc(C)c1NC(=O)CCC(=O)NC(N)=NC#N | – | > 100 | > 100 | > 100 | > 100 | > 100 | > 100 | > 100 | – | – | – | – | – | – | – | – | – | – | – | –
11 | CC12OC(CC(O)C1O)n1c3ccccc3c3c4c(c5c6ccccc6n2c5c31)C(=O)N(CCN1CCOCC1)C4=O (configuration not stated) | 10.6 | – | 5.77 | 3.63 | 8.57 | 7.87 | 4.13 | 1.7 | 2.18 | 1.92 | 10.2 | 0.949 | 6.1 | 1.04 | 0.704 | 2.16 | 1.08 | 1.19 | 0.205 | –
12 | CC(=O)OC1CCC2OOC1O2 (configuration not stated) | > 100 | > 100 | > 100 | > 100 | > 100 | > 100 | > 100 | > 100 | – | – | – | – | – | – | – | – | – | – | – | –
13 | CN(C)NC(=O)/C(=C/c1ccc(Cl)cc1)NC(=O)c1ccccc1 | > 100 | > 100 | > 100 | > 100 | > 100 | > 100 | > 100 | > 100 | – | – | – | – | – | – | – | – | – | – | – | –
14 | O=C(Nc1nc(-c2ccc(Cl)cc2)cs1)c1cc(O)c(O)c(O)c1 | – | 843 | 569 | 138 | > 5000 | 1400 | 3420 | 964 | – | 479 | > 5000 | 247 | 1840 | 50.6 | 21.4 | 303 | 146 | 538 | 181 | 173
15 | COC(=O)C1C(C(=O)O)C2(c3ccccc3)C(=O)C1(c1ccccc1)C(c1ccccc1)=C2c1ccccc1 (configuration not stated) | 34.1 | 36.3 | 36 | 34.1 | – | 53.1 | 36.6 | 29.1 | 16.5 | 23.4 | 58 | 16.9 | 34 | 17.9 | 16 | – | 20 | 18.3 | 13.6 | 19.5
16 | C=CCn1c2ccccc2c2c3c(c4c5ccccc5n(CC=C)c4c21)C(=O)N(O)C3=O | 46.1 | – | 5 | 2.56 | > 100 | 32.4 | > 100 | 10.7 | 13 | 19.6 | > 100 | 3.65 | > 100 | 1.75 | 1.09 | 5.47 | 3.72 | 3.22 | 2.78 | –
17 | C=C1C(=O)O[C@H](c2ccoc2)C[C@@H]1[C@@]1(C)CCCC2(C)C(=O)OCC21 (some centres not stated) | > 100 | > 100 | > 100 | > 100 | > 100 | > 100 | > 100 | > 100 | – | – | – | – | – | – | – | – | – | – | – | –
18 | O=c1nc2sc3ccccc3c(=O)n2[nH]1 | > 100 | > 100 | > 100 | – | > 100 | > 100 | > 100 | > 100 | – | – | – | – | – | – | – | – | – | – | – | –
19 | Nc1[nH]nc2nc(-c3cc(Cl)ccc3Cl)cc(-c3ccc(F)cc3)c12 | 43.2 | 21.1 | 34.7 | 31.5 | > 100 | 43.6 | – | 58 | 21.2 | 24.1 | 53.7 | 23.6 | 53.8 | 13.8 | 14.4 | 36.9 | 18.2 | – | 19.7 | –
20 | N#C/C(=C\c1c(O)cc(O)cc1O)C(N)=O | > 100 | > 100 | > 100 | > 100 | > 100 | > 100 | > 100 | > 100 | – | – | – | – | – | – | – | – | – | – | – | –
21 | Cc1ccccc1NC(=O)/C(=N\NC(N)=S)C(C#N)c1ccccc1 (configuration not stated) | > 100 | > 100 | > 100 | > 100 | > 100 | > 100 | > 100 | > 100 | – | – | – | – | – | – | – | – | – | – | – | –
